In patent US6156700A, “3-(1,2-Benzisothiazol- and isoxazol-5-yl)-2,4(1H,3H)-pyrimidinedione or thione and 3-(1,2-benzisothiazol- and isoxazol-5-yl)-4(3H)-pyrimidinone or thione herbicidal agents” (American Cyanmid Company, priority 1998, dated 2000):
Several values for one entry are separate records, joined by “and”; a condition that tells them apart may be missing. Equal values may be shown once.

Key:
[1] = test system: CYPIR Rice Flatsedge; assay: Postemergence weed control, flooded paddy (Table IV); type: in vivo, Cyperus iria; design: scale not given here
Method in brief: (§1)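 Flooded greenhouse pots; water 1.5–3 cm over soil throughout. Weeds 3–5 cm, rice 1.5–2.5 leaf. Dose ~0.0313–0.500 kg/ha a.i., aqueous/acetone 50/50 v/v into flood water. Visual herbicidal rating at 3–4 wk.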

[2] = test system: Soybean, Glycine max; assay: Postemergence herbicidal evaluation, GLXMA; type: in vivo, (L.) Merr.; details: 0.2500 kg/ha
Description: In the tests, seedling plants are grown in jiffy flats for about two weeks. The test compounds are dispersed in 50/50 acetone/water mixtures containing 0.5% TWEEN®20, a polyoxyethylene sorbitan monolaurate surfactant of Atlas Chemical Industries, in sufficient quantities to provide the equivalent of about 0.0157 kg to 0.500 kg per hectare of active compound when applied to the plants through a spray nozzle operating at 40 psi for a predetermined time. After spraying, the plants are placed on greenhouse benches and are cared for in accordance with conventional greenhouse procedures. From four to five weeks after treatment, the seedling plants are examined and rated according to the rating system set forth below. Where more than one test is involved for a given compound, the data are averaged.
(§2) Results of herbicide evaluation are expressed on a rating scale (0-9). The scale is based upon a visual observation of plant stand, vigor, malformation, size, chlorosis and overall plant appearance as compared with a control.

[3] = test system: ECHORC Watergrass (Calif.); assay: Postemergence weed control, flooded paddy (Table IV); type: in vivo, Echinochloa oryzoides; design: scale not given here
Method in brief: as §1

[4] = test system: Soybean, Williams, Glycine max; assay: Postemergence herbicidal evaluation, GLXMAW; type: in vivo, (L.) Merr. cv Williams
Method in brief: (§3)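 Visual 0–9 scoring against untreated control, made four to five weeks post-spray and averaged over repeat tests, covers stand, vigor, malformation, size and chlorosis. Treatment: foliar spray at 40 psi onto ~2-week seedlings, about 0.0157–0.500 kg/ha, compound in 1:1 acetone/water with 0.5% TWEEN 20.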

[5] = test system: Lambsquarters, Common, Chenopodium album; assay: Postemergence herbicidal evaluation, CHEAL; type: in vivo, L.
Method in brief: as §3

[6] = test system: Foxtail, Green, Setaria viridis; assay: Postemergence herbicidal evaluation, SETVI; type: in vivo, (L.) Beau
Method in brief: as §3

[7] = test system: Galium, Galium aparine; assay: Preemergence herbicidal evaluation, GALAP; type: in vivo; details: 0.2500 kg/ha
Text: as §2
(§4) The preemergence herbicidal activity of the test compounds of the present invention is exemplified by the following tests in which the seeds of a variety of monocotyledonous and dicotyledonous plants are separately mixed with potting soil and planted on top of approximately one inch of soil in separate pint cups. After planting, the cups are sprayed with the selected aqueous acetone solution containing test compound in sufficient quantity to provide the equivalent of about 0.0156 to 0.500 kg per hectare of test compound per cup. The treated cups are then placed on greenhouse benches, watered and cared for in accordance with conventional greenhouse procedures. From four to five weeks after treatment, the tests are terminated and each cup is examined and rated according to the rating system provided in Example 185.
(§5) The compounds evaluated are reported by compound number given in Example 185.

[8] = test system: Soybean, Williams, Glycine max; assay: Preemergence herbicidal evaluation, GLXMAW; type: in vivo, (L.) Merr. cv Williams; details: 0.2500 kg/ha
Text: as §2, §4, §5

[9] = test system: Galium, Galium aparine; assay: Postemergence herbicidal evaluation, GALAP; type: in vivo
Method in brief: as §3

[10] = test system: Morningglory, Ivyleaf, Ipomoea hederacea; assay: Preemergence herbicidal evaluation, IPOHE; type: in vivo, (L.) Jacq.; details: 0.2500 kg/ha
Text: as §2, §4, §5

[11] = test system: Barnyardgrass, Echinochloa crus-galli; assay: Postemergence herbicidal evaluation, ECHCG; type: in vivo, (L.) Beau
Method in brief: as §3

[12] = test system: Morningglory, Ivyleaf, Ipomoea hederacea; assay: Postemergence herbicidal evaluation, IPOHE; type: in vivo, (L.) Jacq.; details: 0.0630 kg/ha
Method in brief: as §3

[13] = test system: Velvetleaf, Abutilon theophrasti; assay: Preemergence herbicidal evaluation, ABUTH; type: in vivo, Medic.; details: 0.2500 kg/ha
Method in brief: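 Preemergence spray, aqueous acetone solution, ~0.0156–0.500 kg/ha, applied to freshly seeded soil cups. Greenhouse, 4–5 wk. Visual 0–9 rating vs untreated control (stand, vigor, malformation, size, chlorosis, overall appearance).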

[14] = test system: Ragweed, Common, Ambrosia artemisifolia; assay: Postemergence herbicidal evaluation, AMBEL; type: in vivo, L.
Method in brief: as §3

[15] = test system: SAGPY Arrowhead (Pygmaea); assay: Postemergence weed control, flooded paddy (Table IV); type: in vivo, Sagittaria pygmaea; design: scale not given here
Method in brief: as §1

[16] = test system: ORYSAT Rice, Tebonnet; assay: Rice tolerance, flooded paddy (Table IV); type: in vivo, Oryza sativa; design: scale not given here; details: crop tolerance
Method in brief: as §1

[17] = test system: Lambsquarters, Common, Chenopodium album; assay: Preemergence herbicidal evaluation, CHEAL; type: in vivo, L.; details: 0.2500 kg/ha
Text: as §2, §4, §5

[18] = test system: ORYSAT Rice, Tebonnet; assay: Tolerance of transplanted rice to post-transplant application (Table III); type: in vivo, Oryza sativa; design: scale not given here; details: crop tolerance
Description: The tolerance of transplanted rice to post-transplanted herbicide applications is determined as follows: two ten-day-old rice seedlings (cv. Tebonnet) are transplanted into silt loam soil in 32 oz. plastic containers with a diameter of 10.5 cm and no drainage holes. After transplanting, the containers are flooded and the water level is maintained at 1.5 to 3 cm above the soil surface. Three days after transplanting, the flooded soil surface of the containers is treated with the selected aqueous/acetone 50/50 v/v mixture containing the test compounds to provide the equivalent of about 0.0313 to 0.500 kg/ha of active ingredient. The treated containers are placed on greenhouse benches, watered such that the water level is maintained as stated above, and cared for in accordance with conventional greenhouse procedures. Three to four weeks after treatment, the test is terminated and each container is examined and herbicidal effect rated according to the rating system provided in Example 185. The compounds evaluated are reported by compound number given in Example 185.

[19] = test system: AMBEL; assay: Postemergence herbicidal evaluation; type: in vivo
[20] = test system: Soybean, Glycine max; assay: Preemergence herbicidal evaluation, GLXMA; type: in vivo, (L.) Merr.; details: 0.2500 kg/ha
Text: as §2, §4, §5

Row | Structure (SMILES) | herbicidal effect rating ([1]; 0.1250 kg/ha) | herbicidal effect rating ([1]; 0.2500 kg/ha) | herbicidal effect rating ([1]; 0.5000 kg/ha) | herbicide rating (0-9) [2] | herbicidal effect rating ([3]; 0.1250 kg/ha) | herbicidal effect rating ([3]; 0.2500 kg/ha) | herbicidal effect rating ([3]; 0.5000 kg/ha) | herbicide rating (0-9) ([5]; 0.2500 kg/ha) | herbicide rating (0-9) ([6]; 0.2500 kg/ha) | herbicide rating (0-9) [7] | herbicide rating (0-9) ([9]; 0.2500 kg/ha) | herbicide rating (0-9) ([11]; 0.2500 kg/ha) | herbicide rating (0-9) [13] | herbicide rating (0-9) ([14]; 0.2500 kg/ha) | herbicidal effect rating ([15]; 0.1250 kg/ha) | herbicidal effect rating ([15]; 0.2500 kg/ha) | herbicidal effect rating ([15]; 0.5000 kg/ha) | herbicidal effect rating ([16]; 0.1250 kg/ha) | herbicidal effect rating ([16]; 0.2500 kg/ha) | herbicidal effect rating ([16]; 0.5000 kg/ha) | also measured
1 | COc1ccc(C)cc1-c1nsc2ccc(-n3c(=O)cc(C(F)(F)F)n(C)c3=O)cc12 [Compound 1, 3-[3-(6-Methoxy-m-tolyl)-1,2-benzisothiazol-5-yl]-1-methyl-6-(trifluoromethyl)-2,4(1H,3H)-pyrimidinedione] | 9.0 | 9.0 | 9.0 | 9.0 | 6.5 | 8.0 | 9.0 | 9.0 | 9.0 | 9.0 | 9.0 | 9.0 | 9.0 | 9.0 | 0.0 | 1.0 | 3.0 | 4.0 | 6.0 | 7.0 | herbicide rating (0-9) ([4]; 0.0630 kg/ha): 6.0; herbicide rating (0-9) ([4]; 0.2500 kg/ha): 7.0; herbicide rating (0-9) ([5]; 0.0630 kg/ha): 9.0; herbicide rating (0-9) ([6]; 0.0630 kg/ha): 9.0; herbicide rating (0-9) [8]: 7.5; herbicide rating (0-9) ([9]; 0.0630 kg/ha): 9.0; herbicide rating (0-9) [10]: 8.0; herbicide rating (0-9) ([11]; 0.0630 kg/ha): 7.0; herbicide rating (0-9) [12]: 9.0; herbicide rating (0-9) ([14]; 0.0630 kg/ha): 9.0; herbicide rating (0-9) [17]: 9.0; herbicidal effect rating ([18]; 0.0313 kg/ha): 4.7; herbicidal effect rating ([18]; 0.0625 kg/ha): 4.7; herbicidal effect rating ([18]; 0.1250 kg/ha): 5.3; herbicidal effect rating ([18]; 0.2500 kg/ha): 7.7; herbicidal effect rating ([18]; 0.5000 kg/ha): 7.0
2 | Cn1c(C(F)(F)F)cc(=O)n(-c2ccc3snc(-c4ccccc4)c3c2)c1=O [Compound 4, 1-Methyl-3-(3-phenyl-1,2-benzisothiazol-5-yl)-6-(trifluoromethyl)-2,4(1H,3H)-pyrimidinedione] | 9.0 | 9.0 | 9.0 | 9.0 | 9.0 | 9.0 | 9.0 | 9.0 | 9.0 | 9.0 | 9.0 | 8.0 | 9.0 | 9.0 | 6.0 | 9.0 | 9.0 | 7.0 | 8.0 | 8.0 | herbicidal effect rating ([19]; 0.0157-0.0160 kg/ha): 9.0; herbicidal effect rating ([19]; 0.0313-0.0320 kg/ha): 7.0; herbicidal effect rating ([19]; 0.0625-0.0640 kg/ha): 9.0; herbicidal effect rating ([19]; 0.1250 kg/ha): 9.0; herbicidal effect rating ([19]; 0.2500 kg/ha): 9.0; herbicidal effect rating ([19]; 0.5000 kg/ha): 9.0; herbicide rating (0-9) [20]: 7.0; herbicide rating (0-9) [17]: 9.0; herbicidal effect rating ([18]; 0.0313 kg/ha): 4.0; herbicidal effect rating ([18]; 0.0625 kg/ha): 7.0; herbicidal effect rating ([18]; 0.1250 kg/ha): 7.0; herbicidal effect rating ([18]; 0.2500 kg/ha): 8.0; herbicidal effect rating ([18]; 0.5000 kg/ha): 8.0
3 | CCc1ccc(-c2nsc3ccc(-n4c(=O)cc(C(F)(F)F)n(C)c4=O)cc23)cc1 [Compound 5, 3-[3-(p-Ethylphenyl)-1,2-benzisothiazol-5-yl]-1-methyl-6-(trifluoromethyl)-2,4 (1H,3H)-pyrimidinedione] | 9.0 | 9.0 | 9.0 | 7.0 | 6.0 | 9.0 | 9.0 | 9.0 | 9.0 | 6.0 | 9.0 | 7.0 | 9.0 | 9.0 | 4.0 | 6.0 | 8.0 | 4.0 | 6.0 | 8.0 | herbicide rating (0-9) [20]: 4.0; herbicide rating (0-9) [17]: 9.0; herbicidal effect rating ([18]; 0.0313 kg/ha): 2.0; herbicidal effect rating ([18]; 0.0625 kg/ha): 3.0; herbicidal effect rating ([18]; 0.1250 kg/ha): 4.0; herbicidal effect rating ([18]; 0.2500 kg/ha): 5.0; herbicidal effect rating ([18]; 0.5000 kg/ha): 7.0
4 | Cc1nsc2ccc(-n3c(=O)cc(C(F)(F)F)n(C)c3=O)cc12 [Compound 6, 1-Methyl-3-(3-methyl-1,2-benzisothiazol-5-yl)-6-(trifluoromethyl)-2,4(1H,3H)-pyrimidinedione] | 9.0 | 9.0 | 9.0 | 6.0 | 9.0 | 9.0 | 9.0 | 9.0 | 9.0 | 9.0 | 9.0 | 6.0 | 9.0 | 9.0 | 6.0 | 8.0 | 9.0 | 9.0 | 9.0 | 9.0 | herbicide rating (0-9) ([4]; 0.0630 kg/ha): 4.8; herbicide rating (0-9) ([4]; 0.2500 kg/ha): 7.0; herbicide rating (0-9) ([5]; 0.0630 kg/ha): 7.0; herbicide rating (0-9) ([6]; 0.0630 kg/ha): 2.0; herbicide rating (0-9) ([9]; 0.0630 kg/ha): 5.0; herbicide rating (0-9) ([11]; 0.0630 kg/ha): 1.5; herbicide rating (0-9) [12]: 5.0; herbicidal effect rating ([19]; 0.0313-0.0320 kg/ha): 9.0 and 6.0 and 8.0; herbicidal effect rating ([19]; 0.0625-0.0640 kg/ha): 9.0 and 6.5; herbicidal effect rating ([19]; 0.1250 kg/ha): 9.0; herbicidal effect rating ([19]; 0.2500 kg/ha): 9.0; herbicidal effect rating ([19]; 0.5000 kg/ha): 9.0; herbicide rating (0-9) [20]: 9.0; herbicide rating (0-9) ([14]; 0.0630 kg/ha): 6.5; herbicide rating (0-9) [17]: 9.0; herbicidal effect rating ([18]; 0.0625 kg/ha): 8.0; herbicidal effect rating ([18]; 0.1250 kg/ha): 8.0; herbicidal effect rating ([18]; 0.2500 kg/ha): 8.0; herbicidal effect rating ([18]; 0.5000 kg/ha): 8.0
